Experiments:
[1] = system: IL-6; test: IL-6 secretion by THP-1-derived macrophages, ELISA; assay type: cell-based; settings: 24 h
Procedure: First, the effect on the secretion of these mediators by macrophages was evaluated. Secondly, the direct neutralization of already secreted mediators was evaluated. Both were measured by the state-of-the-art ELISA technique. First, the secretion of the pro-inflammatory mediator representatives IL-6, TNFa and MMP9 in cell culture supernatants by THP-1 (a monocytic cell line) after its differentiation into macrophages were measured. In brief, THP-1 cells were seeded at a density of 3×10^5 cells/cm^2 in a 6-well plate in the presence of 160 nM of phorbol-12-myristate-13-acetate (PMA) to induce macrophage differentiation. Differentiation was further conducted for 48 h. […] Supernatants were collected and centrifuged at 150 g for 5 min to remove cell debris and were kept at −20° C. before being processed for ELISA. IL-6, TNFa and MMP9 ELISA kits were purchased from BioTechne and the experiment was performed according to manufacturer's instructions. Briefly, 96-well plates were coated with capture antibodies overnight at room temperature. […] After several washing steps, the corresponding detection antibody, which is coupled to biotin, was incubated for 2 h. […] The reaction was stopped by the addition of sulphuric acid and absorbance at 450 nm was read with a plate reader. Absorbance is proportional to the concentration of analyte present in the medium, which was calculated based on a standard curve realized with recombinant IL-6, TNFa and MMP9.

[2] = system: IL-6; test: Direct neutralization of secreted IL-6 in cell culture supernatants, ELISA; assay type: biochemical; settings: isoleucine 0.05%; 3 h
Procedure: (§1) First, the effect on the secretion of these mediators by macrophages was evaluated. Secondly, the direct neutralization of already secreted mediators was evaluated. Both were measured by the state-of-the-art ELISA technique. Secondly, the direct neutralization of secreted pro-inflammatory mediator representatives IL-6, TNFa and MMP9 was measured in parallel. In brief, cell culture supernatants were collected after 48 h of macrophage differentiation and were centrifuged at 150 g for 5 min to remove cell debris. […] Treated supernatants were kept frozen until being processed for ELISA. IL-6, TNFa and MMP9 ELISA kits were purchased from BioTechne and the experiment was performed according to manufacturer's instructions. Briefly, 96-well plates were coated with capture antibodies overnight at room temperature. […] After several washing steps, the corresponding detection antibody, which is coupled to biotin, was incubated for 2 h. […] The reaction was stopped by the addition of sulphuric acid and absorbance at 450 nm was read with a plate reader. Absorbance is proportional to the concentration of analyte present in the medium, which was calculated based on a standard curve realized with recombinant IL-6, TNFa and MMP9.

[3] = system: MMP9; test: MMP9 secretion by THP-1-derived macrophages, ELISA; assay type: cell-based; settings: 24 h
Procedure: First, the effect on the secretion of these mediators by macrophages was evaluated. Secondly, the direct neutralization of already secreted mediators was evaluated. Both were measured by the state-of-the-art ELISA technique. First, the secretion of the pro-inflammatory mediator representatives IL-6, TNFa and MMP9 in cell culture supernatants by THP-1 (a monocytic cell line) after its differentiation into macrophages were measured. In brief, THP-1 cells were seeded at a density of 3×10^5 cells/cm^2 in a 6-well plate in the presence of 160 nM of phorbol-12-myristate-13-acetate (PMA) to induce macrophage differentiation. Differentiation was further conducted for 48 h. […] Supernatants were collected and centrifuged at 150 g for 5 min to remove cell debris and were kept at −20° C. before being processed for ELISA. IL-6, TNFa and MMP9 ELISA kits were purchased from BioTechne and the experiment was performed according to manufacturer's instructions. Briefly, 96-well plates were coated with capture antibodies overnight at room temperature. […] The reaction was stopped by the addition of sulphuric acid and absorbance at 450 nm was read with a plate reader. Absorbance is proportional to the concentration of analyte present in the medium, which was calculated based on a standard curve realized with recombinant IL-6, TNFa and MMP9.

[4] = system: MMP9; test: Direct neutralization of secreted MMP9 in cell culture supernatants, ELISA; assay type: biochemical; settings: isoleucine 0.05%; 3 h
Procedure: as §1

[5] = system: S. aureus (ATCC®6538™); test: Microbial challenge testing in alginogel with GOX+EPO; assay type: cell-based; settings: isoleucine 0.0025% (w/w)
Procedure: In a further experiment, the efficacy of antimicrobial activity enhancement by isoleucine of the GOX combination with eosinophil peroxidase (EPO) was evaluated. In view hereof, a test was set up as described in the section on ‘challenge testing’ described above with the difference that EPO was used instead of LPO.
In brief, microbial challenge testing was performed according to the method described in the European Pharmacopoeia current version chapter 5.1.3 ‘Efficacy of antimicrobial preservation’, but with adapted time points (0, 10, 20, 30, 40, 50, 60, 70 and 80 min instead of 0, 2, 7, 14 and 28 days). […] After preparation, a homogenous sample of 10 g was transferred into a 50 ml conical tube for each alginogel to be evaluated. […] Then, the 50 ml conical tubes containing the alginogel samples to be evaluated were inoculated with 100 μl of the designated inoculum and incubated at 25° C. for 80 minutes. At the start (time point 0) and after 0, 10, 20, 30, 40, 50, 60, 70 and 80 min, the number of viable microorganisms per gram product (expressed as CFU/g) was determined by transferring a sample of 0.5 g of the product into a 15 ml conical tube containing 4.5 ml of sterile diluent and applying general dilution and plate count techniques. For each combination evaluated, the absolute counts (expressed as log(CFU/g)) at each timepoint were visualized in a graph. […]

[6] = molecular target: GOX (Aspergillus niger, UniProt P13006); test: Glucose oxidase (GOX) activity, spectrophotometric assay; assay type: biochemical; settings: reference = no potentiator candidate
Sequence of GOX (P13006 17-605): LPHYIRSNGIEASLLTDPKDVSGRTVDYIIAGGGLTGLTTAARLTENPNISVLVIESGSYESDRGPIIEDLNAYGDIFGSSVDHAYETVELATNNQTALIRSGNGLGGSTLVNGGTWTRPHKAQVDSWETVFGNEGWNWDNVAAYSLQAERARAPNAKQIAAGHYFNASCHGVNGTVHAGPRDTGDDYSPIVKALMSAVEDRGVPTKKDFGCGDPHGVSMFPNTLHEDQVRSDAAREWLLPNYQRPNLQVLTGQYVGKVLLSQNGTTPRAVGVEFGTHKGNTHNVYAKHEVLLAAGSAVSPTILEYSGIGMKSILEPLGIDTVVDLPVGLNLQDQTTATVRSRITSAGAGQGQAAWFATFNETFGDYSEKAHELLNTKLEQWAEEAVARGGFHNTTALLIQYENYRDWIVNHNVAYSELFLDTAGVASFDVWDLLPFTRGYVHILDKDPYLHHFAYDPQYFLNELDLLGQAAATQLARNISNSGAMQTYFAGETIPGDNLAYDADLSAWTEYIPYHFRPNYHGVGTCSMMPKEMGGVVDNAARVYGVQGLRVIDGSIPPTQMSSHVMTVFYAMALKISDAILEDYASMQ
Procedure: The natural enzyme GOX is an oxidoreductase that catalyses the oxidation of glucose to gluconic acid and hydrogen peroxide (H2O2) in the presence of water and air. To measure the enzymatic activity of GOX, a standard spectrophotometric assay is performed. In brief, a second oxidoreductase enzyme, peroxidase, and a chromogenic oxygen acceptor, o-dianisidine, are added to the former reaction mix (GOX+glucose+water+air) so that the formation of a coloured compound is achieved that can in turn be measured by spectrophotometry. GOX was tested in 4 different concentrations, i.e., 100, 50, 10 and 1 mg/ml. Each reaction mixture was tested in duplo. In the event GOX activity was evaluated in the presence of a potentiator candidate (=a molecule that might be able to augment the enzymatic activity of GOX), the latter was added in a low and high concentration ranging from 100 to 0.1 mg/ml. The blank consisted of the reaction mix in which the enzymes were absent. After mixing all reaction elements, absorbance was immediately measured with a plate reader (Spectramax ID3, Molecular Devices) every minute for 5 minutes at 35° C. For each combination evaluated, this test was repeated at least 2 times. Results were further analysed in MS Excel and expressed as U/g. Mean blank-corrected data±SD were plotted. Statistical significance compared to the combination without potentiator candidate (reference) was calculated using students' t-tests. Significance is achieved when the obtained p-value is lower than 0,05. Significance levels were defined as p<0.05=*; p<0.01=** and p<0.001=***.

Compound | additional decrease in IL-6 secretion by macrophages vs GOX+LPO (1:1) alone ([1]; isoleucine 0.0025%) | additional decrease in IL-6 secretion by macrophages vs GOX+LPO (1:1) alone ([1]; isoleucine 0.05%) | additional decrease in IL-6 secretion by macrophages vs GOX+LPO (1:1) alone ([1]; isoleucine 0.5%) | additional decrease of already secreted IL-6 (direct neutralization) vs GOX+LPO (1:1) alone [2] | additional decrease in MMP9 secretion by macrophages vs GOX+LPO (1:1) alone ([3]; isoleucine 0.0025%) | additional decrease in MMP9 secretion by macrophages vs GOX+LPO (1:1) alone ([3]; isoleucine 0.05%) | additional decrease of already secreted MMP9 (direct neutralization) vs GOX+LPO (1:1) alone [4] | time to complete reduction of absolute S. aureus counts [5] | GOX activity compared to reference ([6]; enhancer 0.1 mg/ml) | GOX activity compared to reference ([6]; enhancer 100 mg/ml)
CC[C@H](C)[C@H](N)C(=O)O [Isoleucine, isoleucine] | 7.6% | 20.6% | 33.6% | 29.4% | 12.7% | 21.5% | 27.1% | 80 min |  | 
O=C(O)[C@@H]1CCCN1 [Proline, proline] |  |  |  |  |  |  |  |  | significant increase | significant increase
